The values below come from paper PMC7736581, “Activation of the IRE1 RNase through remodeling of the kinase front pocket by ATP-competitive ligands” (Nature Communications, 2020).

Some targets named below: PIM1 (Homo sapiens, UniProt P11309); JAK2 (Homo sapiens, UniProt O60674); EphA3 (Homo sapiens, UniProt P29320); CAMKK1 (Homo sapiens, UniProt Q8N5S9); EphB1 (Homo sapiens, UniProt P54762); GRK3 (Homo sapiens, UniProt P35626); MKNK2 (Homo sapiens, UniProt Q9HBH9); SGK2 (Homo sapiens, UniProt Q9HBY8); CLK4 (Homo sapiens, UniProt Q9HAZ1); ROCK2 (Homo sapiens, UniProt O75116); CDK9/cyclinT1 (Homo sapiens, UniProt P50750).

What all share (assay): biochemical
Common to all, as to set-up: Invitrogen kinase panel: Z'Lyte activity (ATP at Km) or LanthaScreen competitive ATP-site binding, percent inhibition
On the technique in general: Time-resolved FRET reads energy transfer from a long-lived donor to a nearby acceptor.

Another test deals with T1, MSK1 (Homo sapiens, UniProt O75582).
T1 construct: gene RPS6KA5

The next test deals with T2, JNK1_alpha1 (Homo sapiens, UniProt P45983).
T2 construct: gene MAPK8; isoform alpha1
T2 sequence (P45983 whole entry, canonical isoform): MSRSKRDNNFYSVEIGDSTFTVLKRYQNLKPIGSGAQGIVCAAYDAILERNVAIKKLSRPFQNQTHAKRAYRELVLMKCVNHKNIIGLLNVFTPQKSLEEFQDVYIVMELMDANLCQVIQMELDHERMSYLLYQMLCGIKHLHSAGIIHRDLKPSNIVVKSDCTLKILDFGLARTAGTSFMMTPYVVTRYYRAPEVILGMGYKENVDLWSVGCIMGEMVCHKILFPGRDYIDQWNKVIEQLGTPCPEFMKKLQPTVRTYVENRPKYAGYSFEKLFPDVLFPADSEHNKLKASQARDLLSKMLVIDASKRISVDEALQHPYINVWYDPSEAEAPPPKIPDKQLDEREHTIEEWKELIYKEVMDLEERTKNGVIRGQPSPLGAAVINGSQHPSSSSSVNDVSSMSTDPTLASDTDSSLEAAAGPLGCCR

A further test concerns the target T3, CaMKI (Homo sapiens, UniProt Q14012).
T3 construct: gene CAMK1

In another test the target is T4, ZAK (Homo sapiens, UniProt Q9NYL2).
T4 construct: gene MAP3K20

In another test the target is T5, ASK1 (Homo sapiens, UniProt Q99683).
T5 construct: gene MAP3K5

Another test has as its target T6, Ron (Homo sapiens, UniProt Q04912).
T6 construct: gene MST1R

For a further test, the target named is T7, MYLK3(caMLCK) (Homo sapiens, UniProt Q32MK0).
T7 construct: caMLCK

For the next test, the target named is T8, TAO2 (Homo sapiens, UniProt Q9UL54).
T8 construct: gene TAOK2

A further test deals with T9, MST3 (Homo sapiens, UniProt Q9Y6E0).
T9 construct: gene STK24

The target in a further test is T10, ARK5 (Homo sapiens, UniProt O60285).
T10 construct: gene NUAK1

The target of another test is T11, PhK_gamma2 (Homo sapiens, UniProt P15735).
T11 construct: gene PHKG2

The target of a further test is T12, Rse (Homo sapiens, UniProt Q06418).
T12 construct: gene TYRO3

In another test the target is T13, JNK3 (Homo sapiens, UniProt P53779).
T13 construct: gene MAPK10

CDK9/cyclinT1, sequence (P50750 whole entry): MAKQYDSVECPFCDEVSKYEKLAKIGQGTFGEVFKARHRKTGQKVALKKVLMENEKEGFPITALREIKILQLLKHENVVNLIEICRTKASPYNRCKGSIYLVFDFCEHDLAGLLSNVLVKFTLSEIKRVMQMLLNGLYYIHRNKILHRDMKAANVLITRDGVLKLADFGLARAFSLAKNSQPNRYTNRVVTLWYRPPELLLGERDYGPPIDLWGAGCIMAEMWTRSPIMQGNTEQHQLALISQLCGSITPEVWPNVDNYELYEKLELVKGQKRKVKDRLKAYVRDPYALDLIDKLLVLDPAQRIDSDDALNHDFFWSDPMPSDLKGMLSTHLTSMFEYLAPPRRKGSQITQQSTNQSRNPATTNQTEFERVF
CDK9/cyclinT1, sequence (O60563 whole entry partner): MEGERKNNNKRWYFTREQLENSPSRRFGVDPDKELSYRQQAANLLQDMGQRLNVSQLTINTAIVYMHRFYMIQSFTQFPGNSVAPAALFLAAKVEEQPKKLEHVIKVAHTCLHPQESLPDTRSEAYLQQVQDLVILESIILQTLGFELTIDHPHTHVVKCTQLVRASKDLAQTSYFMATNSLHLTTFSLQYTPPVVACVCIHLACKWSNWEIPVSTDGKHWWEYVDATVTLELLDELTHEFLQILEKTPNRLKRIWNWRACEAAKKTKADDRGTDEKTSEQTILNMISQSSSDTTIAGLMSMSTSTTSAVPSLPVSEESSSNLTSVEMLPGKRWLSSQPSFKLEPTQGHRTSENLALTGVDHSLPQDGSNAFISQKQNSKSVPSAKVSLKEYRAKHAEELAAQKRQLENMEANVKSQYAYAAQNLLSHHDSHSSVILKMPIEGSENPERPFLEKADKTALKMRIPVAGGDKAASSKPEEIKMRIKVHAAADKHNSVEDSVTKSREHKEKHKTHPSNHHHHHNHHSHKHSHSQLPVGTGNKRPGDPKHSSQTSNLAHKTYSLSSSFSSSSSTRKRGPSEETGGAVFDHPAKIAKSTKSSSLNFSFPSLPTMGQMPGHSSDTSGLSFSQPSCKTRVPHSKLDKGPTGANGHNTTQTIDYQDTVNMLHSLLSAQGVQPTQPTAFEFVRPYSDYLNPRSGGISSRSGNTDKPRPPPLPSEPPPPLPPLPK
PIM1, sequence (P11309 whole entry): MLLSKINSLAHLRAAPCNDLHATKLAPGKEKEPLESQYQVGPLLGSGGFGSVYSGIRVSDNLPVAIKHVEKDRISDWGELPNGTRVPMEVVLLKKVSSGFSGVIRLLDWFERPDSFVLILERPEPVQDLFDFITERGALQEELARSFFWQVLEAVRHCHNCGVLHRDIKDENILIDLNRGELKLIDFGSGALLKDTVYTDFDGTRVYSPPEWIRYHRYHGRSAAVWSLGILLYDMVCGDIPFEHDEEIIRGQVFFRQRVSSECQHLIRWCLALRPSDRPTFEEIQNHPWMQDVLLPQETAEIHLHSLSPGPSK
EphA3, sequence (P29320 whole entry): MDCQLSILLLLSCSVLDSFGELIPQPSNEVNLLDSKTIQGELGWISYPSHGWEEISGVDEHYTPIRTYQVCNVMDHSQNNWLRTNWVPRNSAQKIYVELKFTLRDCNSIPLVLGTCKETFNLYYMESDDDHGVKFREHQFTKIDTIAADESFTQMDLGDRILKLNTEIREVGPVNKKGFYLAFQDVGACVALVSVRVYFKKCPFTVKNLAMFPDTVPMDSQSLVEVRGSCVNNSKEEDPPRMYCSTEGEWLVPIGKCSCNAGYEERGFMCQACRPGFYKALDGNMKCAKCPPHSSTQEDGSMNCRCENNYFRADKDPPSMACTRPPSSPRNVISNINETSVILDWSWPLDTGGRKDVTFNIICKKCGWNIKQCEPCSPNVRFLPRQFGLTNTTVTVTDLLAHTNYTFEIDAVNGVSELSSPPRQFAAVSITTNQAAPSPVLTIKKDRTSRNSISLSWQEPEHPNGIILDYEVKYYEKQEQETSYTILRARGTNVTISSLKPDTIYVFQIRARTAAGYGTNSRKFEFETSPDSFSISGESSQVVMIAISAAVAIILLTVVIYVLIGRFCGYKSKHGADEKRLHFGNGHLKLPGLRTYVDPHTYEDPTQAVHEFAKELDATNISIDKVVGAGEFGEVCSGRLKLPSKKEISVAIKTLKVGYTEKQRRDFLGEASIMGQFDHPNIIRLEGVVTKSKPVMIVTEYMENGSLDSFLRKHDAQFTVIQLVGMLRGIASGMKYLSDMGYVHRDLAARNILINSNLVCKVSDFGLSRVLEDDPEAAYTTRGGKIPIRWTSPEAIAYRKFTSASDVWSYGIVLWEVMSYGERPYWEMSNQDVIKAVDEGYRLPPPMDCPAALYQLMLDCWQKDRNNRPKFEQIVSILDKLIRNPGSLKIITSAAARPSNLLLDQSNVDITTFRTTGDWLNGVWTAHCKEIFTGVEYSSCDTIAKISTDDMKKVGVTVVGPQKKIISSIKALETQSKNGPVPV
ROCK2, sequence (O75116 whole entry): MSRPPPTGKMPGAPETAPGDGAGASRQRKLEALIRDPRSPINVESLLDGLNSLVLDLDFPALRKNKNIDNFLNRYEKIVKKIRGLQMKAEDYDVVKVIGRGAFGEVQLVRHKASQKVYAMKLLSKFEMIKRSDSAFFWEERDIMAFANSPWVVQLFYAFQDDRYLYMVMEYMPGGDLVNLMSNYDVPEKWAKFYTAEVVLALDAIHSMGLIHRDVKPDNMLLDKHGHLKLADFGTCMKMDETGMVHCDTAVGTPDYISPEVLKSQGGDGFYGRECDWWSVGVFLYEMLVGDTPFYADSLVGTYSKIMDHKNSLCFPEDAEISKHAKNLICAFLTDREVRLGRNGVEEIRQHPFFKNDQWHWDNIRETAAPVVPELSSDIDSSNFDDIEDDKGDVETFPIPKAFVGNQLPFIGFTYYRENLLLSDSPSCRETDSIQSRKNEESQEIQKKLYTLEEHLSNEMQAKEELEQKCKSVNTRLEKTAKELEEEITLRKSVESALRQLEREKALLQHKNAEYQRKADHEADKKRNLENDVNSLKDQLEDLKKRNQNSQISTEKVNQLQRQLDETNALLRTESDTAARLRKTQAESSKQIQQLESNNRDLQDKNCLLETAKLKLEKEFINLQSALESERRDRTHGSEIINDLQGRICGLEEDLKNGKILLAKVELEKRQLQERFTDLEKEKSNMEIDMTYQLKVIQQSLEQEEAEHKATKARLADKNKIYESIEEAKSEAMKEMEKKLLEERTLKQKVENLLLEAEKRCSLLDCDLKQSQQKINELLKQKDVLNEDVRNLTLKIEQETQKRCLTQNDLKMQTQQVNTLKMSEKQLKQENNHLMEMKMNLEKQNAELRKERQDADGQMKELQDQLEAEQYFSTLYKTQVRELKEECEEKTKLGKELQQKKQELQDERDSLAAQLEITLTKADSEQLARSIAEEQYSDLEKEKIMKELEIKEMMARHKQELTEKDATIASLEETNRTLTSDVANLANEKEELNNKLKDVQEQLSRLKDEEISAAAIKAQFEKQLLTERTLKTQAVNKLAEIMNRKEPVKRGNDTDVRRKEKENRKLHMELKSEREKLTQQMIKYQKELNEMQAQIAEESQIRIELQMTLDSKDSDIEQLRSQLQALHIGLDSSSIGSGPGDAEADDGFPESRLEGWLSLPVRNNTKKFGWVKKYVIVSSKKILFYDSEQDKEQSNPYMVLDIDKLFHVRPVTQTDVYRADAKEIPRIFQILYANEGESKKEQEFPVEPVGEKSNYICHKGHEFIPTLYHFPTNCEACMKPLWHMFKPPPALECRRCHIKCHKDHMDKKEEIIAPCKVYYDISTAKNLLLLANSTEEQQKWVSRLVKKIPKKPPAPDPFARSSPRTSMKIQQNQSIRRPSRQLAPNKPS
CAMKK1, sequence (Q8N5S9 whole entry): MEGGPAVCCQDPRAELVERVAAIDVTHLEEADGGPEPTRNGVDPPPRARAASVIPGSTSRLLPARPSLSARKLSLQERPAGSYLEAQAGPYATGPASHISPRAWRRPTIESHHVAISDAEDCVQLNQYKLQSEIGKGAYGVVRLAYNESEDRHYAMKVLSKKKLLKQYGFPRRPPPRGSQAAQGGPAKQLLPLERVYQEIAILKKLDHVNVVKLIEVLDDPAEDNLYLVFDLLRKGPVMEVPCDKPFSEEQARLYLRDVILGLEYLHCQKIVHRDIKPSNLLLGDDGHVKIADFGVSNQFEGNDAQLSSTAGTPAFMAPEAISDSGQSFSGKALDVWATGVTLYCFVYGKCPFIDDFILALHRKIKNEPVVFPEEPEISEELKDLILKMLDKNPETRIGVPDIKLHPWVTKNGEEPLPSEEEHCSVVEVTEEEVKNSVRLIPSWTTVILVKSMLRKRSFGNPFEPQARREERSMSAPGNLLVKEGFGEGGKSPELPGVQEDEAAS

What is called inhibition is the change of the read-out against control, counted positive when it falls. For `CCOC(=O)Nc1cccc2c(Oc3ncccc3-c3ccnc(N[C@H]4CCCNC4)n3)c(C)ccc12` [G-1749], the inhibition at 1 µM was -3% at MSK1; -5.5% at PIM1; 53.5% at JNK1_alpha1; -10% at CaMKI; -0.5% at ZAK; 2.5% at JAK2. The inhibition at 1 µM at ASK1 is -4%; on EphA3, 1%; on CAMKK1, 3.5%; at Ron, -6%; at EphB1, -17%; on MYLK3(caMLCK), 10.5%. Further, the inhibition at 1 µM at TAO2 was 72.5%; at GRK3 it was -1%; at MKNK2, 3.5%; at MST3, -2%; at ARK5, 12%; at SGK2, 3.5%. Moreover, the inhibition at 1 µM at CLK4 worked out at 10.5%; on PhK_gamma2, 2.5%; at ROCK2 it was 1%; at CDK9/cyclinT1, 29%; on Rse it was 8.5%; at JNK3, 52.5%.

For the compound `CC#CC(=O)Nc1cccc2c(Oc3ncccc3-c3ccnc(N[C@H]4CCCNC4)n3)c(C)ccc12` [G-7658], the inhibition at 1 µM was -6% on MSK1; -6% at PIM1; 72.5% on JNK1_alpha1; -2.5% at CaMKI; 0.5% on ZAK; 3% on JAK2. The inhibition at 1 µM was 2% on ASK1; 4.5% at EphA3; 5.5% at CAMKK1; 4% at Ron; -11.5% at EphB1; 4.5% at MYLK3(caMLCK). In addition, the inhibition at 1 µM at TAO2 is 74%; on GRK3, -1.5%; on MKNK2, -2%; at MST3, -8.5%; on ARK5, 8%; on SGK2 it was 1.5%. In addition, the inhibition at 1 µM at CLK4 was 6%; at PhK_gamma2, 4%; on ROCK2, -0.5%; at CDK9/cyclinT1, 35%; at Rse it was 6.5%; at JNK3, 51.5%.
